Earlier results on one compound are cited in patent US11707464B2, “Methods of treating heavy menstrual bleeding” (AbbVie Inc., priority 2013, dated 2023).

The structures appear in SMILES notation.

This data set relates to women with symptomatic uterine fibroids. Particulars: 185 women with HMB associated with uterine fibroids; through 6 months; cited from earlier work.

For `CCNC(=O)[C@@H]1CCCN1C(=O)[C@H](CCCN=C(N)N)NC(=O)[C@H](CC(C)C)NC(=O)[C@@H](Cc1c[nH]c2ccccc12)NC(=O)[C@H](Cc1ccc(O)cc1)NC(=O)[C@H](CO)NC(=O)[C@H](Cc1c[nH]c2ccccc12)NC(=O)[C@H](Cc1cnc[nH]1)NC(=O)[C@@H]1CCC(=O)N1` [deslorelin], the “efficacy (reduction in uterine bleeding and volume) when dosed with low-dose transdermal E2” value was “maintained”.
